Results published in BigSolDB 2.1.

With `COc1cc(N)nc(OC)n1` the solubility (mole fraction) (in DMF, 283.15 K) was 0.055, the solubility (mole fraction) (in DMF, 288.15 K) was 0.0726 and the solubility (mole fraction) (in DMF, 293.15 K) was 0.0949. For the same compound, the solubility (mole fraction) (in DMF, 298.15 K) was 0.123, the solubility (mole fraction) (in DMF, 303.15 K) was 0.158 and the solubility (mole fraction) (in DMF, 308.15 K) was 0.201. The solubility (mole fraction) (in DMF, 313.15 K) was 0.254, the solubility (mole fraction) (in DMF, 318.15 K) was 0.319 and the solubility (mole fraction) (in DMF, 323.15 K) was 0.397. The solubility (mole fraction) (in ethanol, 283.15 K) was 0.0101, the solubility (mole fraction) (in ethanol, 288.15 K) was 0.013 and the solubility (mole fraction) (in ethanol, 293.15 K) was 0.0164. For the same compound, the solubility (mole fraction) (in ethanol, 298.15 K) was 0.0205, the solubility (mole fraction) (in ethanol, 303.15 K) was 0.0253 and the solubility (mole fraction) (in ethanol, 308.15 K) was 0.0313. It also gave a solubility (mole fraction) (in ethanol, 313.15 K) of 0.0383, a solubility (mole fraction) (in ethanol, 318.15 K) of 0.0463 and a solubility (mole fraction) (in ethanol, 323.15 K) of 0.0561. It also gave a solubility (mole fraction) (in isopropanol, 283.15 K) of 0.00553, a solubility (mole fraction) (in isopropanol, 288.15 K) of 0.00742 and a solubility (mole fraction) (in isopropanol, 293.15 K) of 0.0101. The solubility (mole fraction) (in isopropanol, 298.15 K) was 0.0133, the solubility (mole fraction) (in isopropanol, 303.15 K) was 0.0175 and the solubility (mole fraction) (in isopropanol, 308.15 K) was 0.023. For the same compound, the solubility (mole fraction) (in isopropanol, 313.15 K) was 0.0297, the solubility (mole fraction) (in isopropanol, 318.15 K) was 0.038 and the solubility (mole fraction) (in isopropanol, 323.15 K) was 0.0484. For the same compound, the solubility (mole fraction) (in methanol, 283.15 K) was 0.0181, the solubility (mole fraction) (in methanol, 288.15 K) was 0.0214 and the solubility (mole fraction) (in methanol, 293.15 K) was 0.0254. The solubility (mole fraction) (in methanol, 298.15 K) was 0.0301, the solubility (mole fraction) (in methanol, 303.15 K) was 0.0352 and the solubility (mole fraction) (in methanol, 308.15 K) was 0.0414. The solubility (mole fraction) (in methanol, 313.15 K) was 0.0482, the solubility (mole fraction) (in methanol, 318.15 K) was 0.0559 and the solubility (mole fraction) (in methanol, 323.15 K) was 0.0643. For the same compound, the solubility (mole fraction) (in water, 283.15 K) was 0.000298, the solubility (mole fraction) (in water, 288.15 K) was 0.000347 and the solubility (mole fraction) (in water, 293.15 K) was 0.000405. The solubility (mole fraction) (in water, 298.15 K) was 0.000464, the solubility (mole fraction) (in water, 303.15 K) was 0.000534 and the solubility (mole fraction) (in water, 308.15 K) was 0.000614. For the same compound, the solubility (mole fraction) (in water, 313.15 K) was 0.000695, the solubility (mole fraction) (in water, 318.15 K) was 0.000788 and the solubility (mole fraction) (in water, 323.15 K) was 0.000897.
